Results reported in US8609651B2, “Pharmaceutical compositions of benzodiazepines and method of use thereof” (Jazz Pharmaceuticals, Inc., priority 2006, dated 2013).
Values after ≈ are worked out from the molar mass of the structure shown.

Experiments:
[1] = Human pharmacokinetic study (oral, intravenous, intranasal cross-over); details: 1 mg; for AUC / Cmax / Tmax / bioavailability: male, plasma; for bioavailability: other: intranasal, intranasal 1 mg
Protocol: The human pharmacokinetics, safety, and tolerability of the benzodiazepines compositions of the present invention formulated for intranasal delivery for therapeutic applications are evaluated using standard clinical procedures. Benzodiazepine compositions formulated for intranasal delivery are provided, for example, for application by the participants to intranasal mucosa.
A primary objective of initial studies in humans is to determine and compare pharmacokinetic profiles of three dosage forms of a benzodiazepine: oral, i.v., and intranasal, following single administration. An example of such a study in humans is a cross-over study performed in 12 healthy male volunteers. Plasma and urine level of clonazepam and 7-amino-clonazepam are determined, for example, using HPLC and UV detection. […] Further the initial studies in humans are used to determine local tolerability of intranasal formulation using questionnaire and the Visual Analog Scale (VAS). VAS is a validated instrument that has been used in numerous studies to quantify subjective […]. In addition, cognitive, sleepiness and mood effects are evaluated using questionnaires and scales (see, e.g., Example 10 below). Further, attention and vigilance may be evaluated using, for example, LEEDS Psychomotor Multiple Choice Reaction Time (MCRT) testing.
A human pharmacokinetic study was carried out as described in Example 8.
15 young, healthy male volunteers received a single dose of 1 mg clonazepam by oral, intravenous and intranasal routes in a three-period cross-over design.

[2] = Solubility of clonazepam in neat solvents
Protocol: The solubility of clonazepam in a number of neat solvents was determined using standard methods.

[3] = Solubility of clonazepam in binary solvent mixtures; details: triacetin/glycofurol 50:50 mixture, 25 °C, organic solvent or mixture, thermodynamic from solid
Protocol: Further, the solubility of clonazepam in binary mixtures of Transcutol® (TC), triacetin (TA), glycofurol (GF) and propylene glycol (PG) was evaluated. Solubility limits of clonazepam were determined for the following formulations:
Excess drug (50 mg) was capped with about 500 μL of the solvent matrix in a 1.5 mL microfuge tube and the solution was mixed on a vortex shaker for several minutes. Thereafter, the solution was placed in an ultrasonic bath at 25° C. for 45 minutes. The temperature was regulated with a thermometer and controlled by adding ice into the bath. After 15 minutes of standing, the solutions were centrifuged at 3,000×g for 30 minutes. Solutions were then stored for 16 hours at 25° C. in an ICH cabinet protected from light.

[4] = Solubilities of clonazepam in glycol ethers at 3 temperatures; details: neat solvent, organic solvent or mixture, thermodynamic from solid
Protocol: The vials were then centrifuged at −5° C. and 5° C. for the −15° C. and 5° C. samples, respectively, at 5000 rpm for 2 minutes.

O=C1CN=C(c2ccccc2Cl)c2cc([N+](=O)[O-])ccc2N1 [Clonazepam, 5-(2-chlorophenyl)-1,3-dihydro-7-nitro-2H-1,4-benzodiazepin-2-one]
Cmax of the intranasal route as % of the intravenous route [1]: 17%
Cmax of the intranasal route as % of the oral route [1]: 93%
AUC ([1]; inhaled or intranasal): ~58 ng·h/mL
Cmax ([1]; inhaled or intranasal): 7.12 ± 3.81 ng/mL
Tmax ([1]; inhaled or intranasal): 12 min
Tmax ([1]; intravenous): 6 min
AUC ([1]; iv): ~106 ng·h/mL
Cmax ([1]; iv): 42.5 ± 10.8 ng/mL
bioavailability ([1]; bioavailability relative to intravenous): 55%
bioavailability ([1]; bioavailability relative to oral): 61%
AUC ([1]; po): ~95 ng·h/mL
Cmax ([1]; po): 7.64 ± 1.74 ng/mL
Tmax ([1]; po): 120 min
solubility ([2]; PEG 200 (neat solvent), organic solvent or mixture): 30.3 mg/mL (≈ 96 mM)
solubility ([2]; PEG 300 (neat solvent), organic solvent or mixture): 37 mg/mL (≈ 117 mM)
solubility ([2]; Transcutol (neat solvent), organic solvent or mixture): 38.7 mg/mL (≈ 123 mM)
solubility ([2]; glycofurol (neat solvent), organic solvent or mixture): 67.3 mg/mL (≈ 213 mM)
solubility ([2]; propylene glycol (neat solvent), organic solvent or mixture): 3.4 mg/mL (≈ 10.8 mM)
solubility ([2]; triacetin (neat solvent), organic solvent or mixture): 5.8 mg/mL (≈ 18.4 mM)
solubility ([2]; water): < 0.1 mg/mL
solubility at 16 h [3]: ~36.4 mg/mL (≈ 115 mM)
solubility ([4]; 1,2-dimethyxoethane, 5 °C): 35.7 mg/mL (≈ 113 mM)
solubility ([4]; 1,2-dimethyxoethane, 25 °C): 39.3 mg/mL (≈ 124 mM)
solubility ([4]; 1,2-dimethyxoethane, -15 °C): 35.2 mg/mL (≈ 111 mM)
solubility ([4]; di(ethylene glycol) diethyl ether, 5 °C): 18.5 mg/mL (≈ 58.6 mM)
solubility ([4]; di(ethylene glycol) diethyl ether, 25 °C): 19 mg/mL (≈ 60.2 mM)
solubility ([4]; di(ethylene glycol) diethyl ether, -15 °C): 19.5 mg/mL (≈ 61.8 mM)
solubility ([4]; di(ethylene glycol) methyl ether, 5 °C): 53.9 mg/mL (≈ 171 mM)
solubility ([4]; di(ethylene glycol) methyl ether, 25 °C): 56.4 mg/mL (≈ 179 mM)
solubility ([4]; di(ethylene glycol) methyl ether, -15 °C): 58.1 mg/mL (≈ 184 mM)
solubility ([4]; diethylene glycol monoethyl ether (DEGEE), 25 °C): 41.8 mg/mL (≈ 132 mM)
solubility ([4]; diethylene glycol monoethyl ether, 5 °C): 37.7 mg/mL (≈ 119 mM)
solubility ([4]; diethylene glycol monoethyl ether, -15 °C): 43.3 mg/mL (≈ 137 mM)
